This note sets out measurements from PubChem BioAssay (NCI).

Holding throughout (experiment): growth of human tumour cells (NCI), 48 h
The subject of test [1] is SN12C renal.
The subject of test [2] is 786-0 renal.
The subject of test [3] is SK-OV-3 ovarian.
The test system of test [4] is CCRF-CEM leukemia.
The subject of test [5] is SF-539 CNS.
Test [6] concerns OVCAR-8 ovarian.
For test [7], the system named is MALME-3M melanoma.
For test [8], the system named is NCI-H226 lung.
The subject of test [9] is SK-MEL-2 melanoma.
For test [10], the system named is MCF7 breast.
Test [11] concerns HL-60(TB) leukemia.
For test [12], the system named is RPMI-8226 leukemia.
The test system of test [13] is MDA-MB-435.
For test [14], the system named is RXF 393 renal.

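Dose response: 5 concentrations. Exposure: 48 h. Format: 96-well plates. Endpoint: linear interpolation; highest concentration if not reached. At the TGI there is no net growth.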 *1 amine or outer side, *2 acyl side, *3 side chain or, on linkers, in order; H or OH if unused. Where a SMILES comes first, the peptide text is derived from it. [ ]: non-standard residue; d: D form. The star is where a group is joined. ξ: configuration not given here. NMeY = CN[C@@H](Cc1ccc(O)cc1)C(=O)O; Ethylenediamine = C(CN[*:2])N[*:1]; ξNMeL = CNC(CC(C)C)C(=O)O; Cbz = O=C(OCc1ccccc1)*; Lac = C[C@H](O)C(=O)O; ξA = CC(N)C(=O)O

As to `O/N=C1\CC2(N3CCOCC3)CCC1(c1ccccc1)CC2`, the TGI in test [1], in test [2], in test [3], in test [4], in test [5] and in [6] was above 100 µM throughout. Besides, the TGI in test [7], in test [8], in test [9], in test [10], in test [11] and in test [12] was above 100 µM in each case. The TGI in test [13] and in test [14] was above 100 µM each time.
Take `C=C(Cl)/C(=C\Cl)CCC(Cl)C(C)C` (centres undefined): the TGI in test [1], in [2], in test [3], in test [4], in [5] and in test [7] was above 100 µM each time. The TGI in [8], in test [9], in test [10], in test [11], in test [12] and in test [13] was above 100 µM each time. In addition, the TGI in test [14] is above 100 µM.
As to `O/N=C(/C(Cl)=C(Cl)Cl)C(Cl)Cl`, the TGI turned out to be 34.1 µM in [1]; 34 µM in test [2]; 74.7 µM in [3]; 36.7 µM in test [4]; 44.9 µM in test [5]; 66.8 µM in test [6]. In addition, the TGI was 77.9 µM in test [7]; above 100 µM in test [8]; 60.7 µM in [10]; 26.3 µM in test [11]; 50.2 µM in test [12]; 33.1 µM in test [13]. Further, in [14], the TGI worked out at 30.5 µM.
In the case of `O=C1NC(N2CCCC(CO)C2)=N/C1=C\c1ccccc1` (centres undefined), the TGI in test [1], in test [2], in test [3], in test [4], in [5] and in test [6] was above 100 µM each time. The TGI in test [7], in test [8], in [9], in [10], in test [11] and in [12] was above 100 µM in each case. The TGI in test [13] and in [14] was above 100 µM each time.
As to `CC(C)=NNc1snnc1C(N)=O`, the TGI in test [1], in test [2], in [3], in test [4], in test [5] and in test [6] was above 100 µM throughout. In addition, the TGI in test [7], in test [8], in [9], in test [10], in test [11] and in [12] was above 100 µM in each case. Also, the TGI in [13] and in [14] was above 100 µM in each case.
As for `CNCCN[C@@H]1c2cc3c(cc2[C@@H](c2cc(OC)c(O)c(OC)c2)[C@H]2C(=O)OC[C@@H]21)OCO3`, the TGI in test [1] amounted to 0.793 µM; in test [2], 0.487 µM; in [3], 1.52 µM; in test [4] it was 0.117 µM; in [5] it was 0.167 µM; in test [6], 2.22 µM. In addition, the TGI was 1.83 µM in [7]; 0.686 µM in test [8]; 1.79 µM in test [9]; above 53.3 µM in test [10]; 0.0483 µM in test [11]; 0.634 µM in test [12]. Also, the figures for the TGI in test [13] and in test [14] were 6.32 µM and 0.747 µM, respectively.
Turning to `COC(=O)c1c(C)[nH]c2c1C(=O)C(=O)c1nc(C)c(C)nc1-2`, the TGI in test [1] was determined as 12.8 µM; in [2], 25.9 µM; in test [3], 18.5 µM; in test [4], 35.7 µM; in test [5] it was 24.8 µM; in test [6], 26.8 µM. Also, the TGI in [7] was found to be 15.7 µM; in [8], 26.7 µM; in [9], 16.3 µM; in [10], 24.8 µM; in test [11] it was 29.2 µM; in [12], 47.3 µM. For the same molecule, the TGI was determined as 28.5 µM in test [13] and 13.4 µM in test [14].
As for `CCc1c2cc(OC)c(OC)cc2cc2c3cc(OC)c(OC)cc3cc[n+]12` (tested in a mixture with another compound), the TGI in [1] is above 79.9 µM; in test [2], above 73 µM; in test [3], above 97.2 µM; in test [4] it was above 100 µM; in [5], above 94.9 µM; in test [6], above 72.6 µM. The TGI in test [7] was 44.2 µM; in test [8], 39.2 µM; in [9] it was 87.1 µM; in test [10], above 91.6 µM; in test [11] it was above 96.8 µM; in test [12], above 47.3 µM. Further, the TGI in test [13] is 25.5 µM; in test [14], above 100 µM.
For the molecule `COc1ccc(C[C@@H](C(=O)NCCNC(=O)C(CC(C)C)N(C)C(=O)[C@@H]2CCCN2C(=O)[C@H](C)O)N(C)C(=O)[C@@H]2CCCN2C(=O)[C@H](CC(C)C)NC(=O)C(C)NC(=O)OCc2ccccc2)cc1` (some centres undefined) (Cbz-[ξA]LP[NMeY](Me)-{Ethylenediamine-ξNMeL-Pro-Lac}), the TGI in test [1], in [2], in [3], in test [4], in test [5] and in test [6] was above 100 µM in each case. The TGI in test [7], in [8], in [9], in [10], in [11] and in test [12] was above 100 µM each time. In addition, the TGI in test [13] and in [14] was above 100 µM each time.
In the case of `O=C(CC(O)(C(F)(F)F)C(F)(F)Cl)CC(O)(C(F)(F)F)C(F)(F)Cl` (centres undefined), the TGI in test [1] was 9.8 µM; in test [2] it was above 10 µM; in test [3], 4.69 µM; in [4] it was above 10 µM; in test [5], above 10 µM; in test [6], above 10 µM. In addition, the TGI in test [7] is 6.34 µM; in [8], 6.92 µM; in test [9] it was 4.15 µM; in test [10] it was above 10 µM; in [11], above 10 µM; in [12], above 10 µM. For the same molecule, the TGI in test [13] was above 10 µM; in test [14] it was 6.58 µM.
As to `O=C1c2c(ccc3c2CCC3)CC1Cc1ccc2c(c1)CCC2` (centres undefined), the TGI in [1] was above 100 µM; in [2], 99.1 µM; in [3], above 100 µM; in [4] it was 37.8 µM; in test [5], above 100 µM; in [6] it was above 100 µM. Further, the TGI is above 100 µM in test [7]; above 100 µM in test [8]; 73.8 µM in test [9]; 96.6 µM in test [10]; 21.7 µM in test [11]; 53.1 µM in [12]. The TGI in test [13] worked out at 92.4 µM; in test [14], 69.1 µM.
Consider `CCN(CC)Cc1ccccc1CC(=O)N1c2ccccc2C(=O)Nc2cccnc21`, for which the TGI in test [1], in test [2], in test [3], in [4], in [5] and in test [6] was above 100 µM each time. The TGI in test [7], in test [8], in [9], in test [10], in [11] and in [12] was above 100 µM in each case. For the same molecule, the TGI in [13] and in test [14] was above 100 µM throughout.
As for `COc1cccc2c1C1(O)C2CCCCCCCCCC12OCCCO2` (centres undefined), the TGI in test [1] was above 100 µM; in test [2], above 100 µM; in test [3], above 100 µM; in test [4], above 92.4 µM; in test [5] it was above 100 µM; in test [6] it was above 100 µM. The TGI was above 100 µM in test [7]; above 94.2 µM in [8]; above 73.2 µM in test [9]; above 100 µM in test [10]; above 47.8 µM in test [11]; above 80.1 µM in [12]. For the same molecule, the TGI in test [13] and in test [14] was above 100 µM each time.
For the molecule `COC(=O)CN(CC(O)C(NC(C)=O)C(O)C=O)C(=O)OCc1ccccc1` (centres undefined), the TGI in test [1], in test [2], in [3], in test [4], in test [5] and in test [6] was above 100 µM in each case. The TGI in test [7], in [8], in test [9], in [10], in test [11] and in [12] was above 100 µM throughout. For the same molecule, the TGI in test [13] and in [14] was above 100 µM throughout.
For `CCOC(=O)/C(=C\NC(C)(C)C)c1nc2ccccc2[nH]1`, the TGI in test [1] stood at 75.6 µM; in [2] it was 72 µM; in [3] it was 78.8 µM; in test [4], 39.5 µM; in test [5], 39.4 µM; in test [6], 64.2 µM. Moreover, the TGI is 39.4 µM in [7]; 47 µM in test [8]; 43.5 µM in test [10]; 34 µM in test [11]; 39.2 µM in test [12]; 38.6 µM in test [13]. The TGI in [14] came to 59.6 µM.
In the case of `N#Cc1c(C#N)c(-c2ccccc2)n(Cc2ccccc2)c1N`, the TGI in test [1] was above 100 µM; in [2], above 100 µM; in [3], above 100 µM; in test [4] it was above 100 µM; in test [5], 63.4 µM; in test [6] it was 75.4 µM. The TGI in test [7], in test [8], in [9], in [10], in test [11] and in [12] was above 100 µM in each case. Moreover, the TGI in [13] and in test [14] was above 100 µM throughout.
With `O=c1cc(-c2ccccc2)[nH]c2ccc(S)cc12`, the TGI in test [1] is 37 µM; in [2] it was above 100 µM; in test [3], above 100 µM; in test [4], above 100 µM; in test [5] it was above 100 µM; in [6], above 100 µM. Further, the TGI in test [7] was 57.7 µM; in [8], 81.9 µM; in test [10], above 100 µM; in test [11], above 100 µM; in test [12], above 100 µM; in test [13], 45.4 µM. In test [14], this molecule had a TGI of 68.2 µM.
Regarding `O=C1C[C@H](COCc2ccccc2)NC(=O)C[C@H](COCc2ccccc2)NC(=O)C[C@H](COCc2ccccc2)N1`, the TGI in test [1] is above 100 µM; in [2], above 100 µM; in test [3], 57.3 µM; in test [4], above 100 µM; in [5] it was 75.1 µM; in test [6], above 100 µM. The TGI in test [7], in [8], in [9], in test [10], in test [11] and in test [12] was above 100 µM throughout. Besides, the TGI in test [13] was above 100 µM; in test [14], 27.1 µM.
Turning to `CCOC(=O)c1nc2ccccc2nc1NCc1ccc(OC)c(OC)c1`, the TGI in [1], in test [2], in [3], in test [4], in test [5] and in test [6] was above 100 µM each time. The TGI in [7], in [8], in test [10], in [11], in [12] and in [13] was above 100 µM in each case. For the same molecule, the TGI in test [14] is above 100 µM.
For `O=C1CCC(=O)N1CNc1ccc2c(c1)S(=O)(=O)c1ccccc1O2`, the TGI in test [1], in [2], in test [4], in test [5], in test [6] and in test [7] was above 100 µM throughout. Moreover, the TGI in [8], in [9], in test [10], in test [11], in test [12] and in [13] was above 100 µM in each case. Further, the TGI in test [14] is above 100 µM.
